Measured values taken from ChEMBL document CHEMBL5357005, “Discovery and Heterologous Production of Tetrapetalones Provide Insights into the Formation of the Tetracyclic System” (J Nat Prod, 2024).
The source made the active and inactive calls.

Columns and labels:
Salmonella typhimurium = test: Antimicrobial activity against Salmonella enterica subsp. enterica serovar Typhimurium assessed as reduction in microbial growth measured for 24 hrs by paper disc diffusion method; assay type: functional, organism-based
SW480 = test: Cytotoxicity against human SW480 cells assessed as reduction in cell viability at 50 uM by sulfonyl rhodamine B colorimetry analysis; assay type: functional, cell-based
HCT-116 = test: Cytotoxicity against human HCT-116 cells assessed as reduction in cell viability at 50 uM by sulfonyl rhodamine B colorimetry analysis; assay type: functional, cell-based
Pseudomonas aeruginosa = test: Antimicrobial activity against Pseudomonas aeruginosa PA01 assessed as reduction in microbial growth measured for 24 hrs by paper disc diffusion method; assay type: functional, organism-based
Candida albicans = test: Antifungal activity against Candida albicans 5314 assessed as reduction in microbial growth measured for 48 hrs by paper disc diffusion method; assay type: functional, organism-based
Staphylococcus aureus = test: Antimicrobial activity against Staphylococcus aureus ATCC 25923 assessed as reduction in microbial growth measured for 24 hrs by paper disc diffusion method; assay type: functional, organism-based

Measured: Activity

CC1=C[C@H]2C(O)=C(C)C(=O)N2C2=CC(=O)C=C3[C@@H](O[C@@H]4CC[C@H](O)[C@H](C)O4)[C@H](C)[C@@H]1[C@]32O
inactive: all assays above

CC1=C[C@@]2(C)C(O)=C(C)C(=O)N2C2=CC(=O)C=C3[C@@H](O)[C@H](C)[C@@H]1[C@]32O
inactive: all assays above

CC[C@@]12C=C(C)[C@@H]3[C@@H](C)[C@H](O[C@H]4O[C@H](C)[C@@H](O)[C@H](O)[C@@H]4O)C4=CC(=O)C=C(N1C(=O)C(C)=C2O)[C@@]43O
inactive: all assays above

CC1=C[C@@]2(C)C(O)=C(C)C(=O)N2C2=CC(=O)C=C3[C@@H](O[C@@H]4CC[C@H](O)[C@H](C)O4)[C@H](C)[C@@H]1[C@]32O
inactive: all assays above

CC1=C[C@@]2(CO)C(O)=C(C)C(=O)N2C2=CC(=O)C=C3[C@@H](O[C@@H]4CC[C@H](O)[C@H](C)O4)[C@H](C)[C@@H]1[C@]32O
inactive: all assays above

CC1=C[C@@]2(C)C(O)=C(C)C(=O)N2C2=CC(=O)C=C3[C@@H](O[C@H]4O[C@H](C)[C@@H](O)[C@H](O)[C@@H]4O)[C@H](C)[C@@H]1[C@]32O
inactive: all assays above

CC[C@@]12C=C(C)[C@@H]3[C@@H](C)[C@H](O)C4=CC(=O)C=C(N1C(=O)C(C)=C2O)[C@@]43O
inactive: all assays above

CC[C@@]12C=C(C)[C@@H]3[C@@H](C)[C@H](O[C@@H]4CC[C@H](O)[C@H](C)O4)C4=CC(=O)C=C(N1C(=O)C(C)=C2O)[C@@]43O
inactive: all assays above
